Measured values: patent US11753430B2, “Method of making cobalt compounds for feed supplements” (Vitalix, Inc., priority 2021, dated 2023)

Experiment: surface area of crystals formed with and without sonication
Format: physicochemical
Experimental: The method can also include a step of forming a premix, including the substeps of adding, after the step of dissolving, gluconic acid to provide an almost 1:1 premix mixture of cobalt acetate and cobalt gluconate compounds, and then sonicating the premix mixture. The premix remained in solution at 15° C. for over ten days. When additional gluconic acid (1.1 eq of total gluconic acid to acetic acid) was added, and gently mixed, within a half hour precipitation of very fine cobalt gluconate crystals occurred.

For cobalt gluconate, the “surface area relative to that observed with sonication” value was “less than 20 times”.
